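Each compound was tested at five concentrations against cells in 96-well plates for 48 hours. GI50 = concentration required for 50% inhibition of growth.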 Calls of active or inactive are those of the source. Cut-off read from the data, not from the text of the source: active = GI50 up to about 1.1 µM and inactive = higher.

Test systems include 786-0; COLO 205; DU-145; EKVX; HCT-15; Hs-578T; LXFL 529; MCF7; NCI-H522; OVCAR-5; PC-3; RPMI-8226; SF-295; SF-539; SK-OV-3; SNB-75; T47D; TK-10; U-251; UO-31.
Holding throughout (experiment): NCI-60 cell line screen, 48 h

As to `O=c1c2ccccc2sc2nc(CCl)nn12`, the GI50 in the assay with 786-0 is 12.4 µM (inactive); with COLO 205, 13.1 µM (inactive); in the assay on DU-145, 7.78 µM (inactive); in the assay with EKVX, 16 µM (inactive); in the assay on HCT-15, 4.6 µM; with Hs-578T, 2.17 µM (inactive). Moreover, the GI50 in the assay with LXFL 529 is 19.5 µM (inactive); in the assay with MCF7, 3.65 µM (inactive); in the assay on NCI-H522, 44.8 µM (inactive); in the assay on OVCAR-5, 24 µM (inactive); in the assay with PC-3, 3.42 µM (inactive); with RPMI-8226, > 97.5 µM (inactive). Moreover, the GI50 in the assay with SF-295 is 43.1 µM (inactive); in the assay on SF-539, 32.4 µM (inactive); with SK-OV-3 it was 14.8 µM (inactive); in the assay with SNB-75, 19.2 µM (inactive); in the assay with T47D it was 4.76 µM (inactive); in the assay on TK-10 it was 10.4 µM (inactive). Moreover, the results for the GI50 with U-251 and with UO-31 were > 96.8 µM (inactive) and 8.28 µM (inactive), respectively.

In the case of `COc1ccc(NC(=O)CSc2nnc(-c3ccc(/N=C\c4ccc(Cl)cc4)cc3)o2)cc1`, the GI50 was 37.8 µM (inactive) with 786-0; 20 µM (inactive) in the assay with COLO 205; 34.5 µM (inactive) in the assay with DU-145; > 59.2 µM (inactive) in the assay with EKVX; 4.78 µM with HCT-15; 77.6 µM (inactive) in the assay on Hs-578T. Further, the GI50 is 16.5 µM (inactive) in the assay with LXFL 529; 23.2 µM (inactive) in the assay with MCF7; 26.7 µM (inactive) in the assay with NCI-H522; > 100 µM (inactive) in the assay with OVCAR-5; 22 µM (inactive) in the assay with PC-3; 9.06 µM (inactive) in the assay with RPMI-8226. The GI50 in the assay on SF-295 is 48.5 µM (inactive); with SK-OV-3 it was 51.8 µM (inactive); in the assay on SNB-75, 31.6 µM (inactive); with T47D, 21.2 µM (inactive); in the assay with TK-10 it was > 100 µM (inactive); in the assay on U-251 it was 24.8 µM (inactive). In the assay with UO-31, the GI50 is > 54.7 µM (inactive).

Take `C[C@@H]1OC2(O)[C@H]3CCCN3S(=O)(=O)CCN2C1=O` (stereo partly drawn): the GI50 is > 100 µM (inactive) in the assay with 786-0; > 100 µM (inactive) in the assay with COLO 205; > 100 µM (inactive) in the assay on EKVX; above 100 µM in the assay with HCT-15; > 100 µM (inactive) with LXFL 529; > 100 µM (inactive) with NCI-H522. The GI50 with OVCAR-5, in the assay on RPMI-8226, in the assay with SF-295, in the assay with SF-539, in the assay with SK-OV-3 and in the assay on SNB-75 was > 100 µM (inactive) each time. Moreover, the GI50 in the assay with TK-10, in the assay with U-251 and in the assay on UO-31 was > 100 µM (inactive) throughout.

On to `Nc1ccc2c(c1)CN1C(=O)c3ccccc3C1=N2` [DANIQUIDONE], for which the GI50 is 28.4 µM (inactive) with 786-0; 23.3 µM (inactive) with COLO 205; 27.4 µM (inactive) with DU-145; 51.3 µM (inactive) in the assay on EKVX; 34.8 µM in the assay with HCT-15; 21.3 µM (inactive) with Hs-578T. For the same compound, the GI50 was 82.8 µM (inactive) with LXFL 529; 39.5 µM (inactive) in the assay with MCF7; 45.3 µM (inactive) in the assay with NCI-H522; 64.9 µM (inactive) in the assay on OVCAR-5; 58.1 µM (inactive) in the assay with PC-3; 74.6 µM (inactive) with RPMI-8226. Also, the GI50 in the assay with SF-295 is 12.9 µM (inactive); in the assay with SF-539, 10.3 µM (inactive); in the assay with SNB-75 it was 30.2 µM (inactive); in the assay on T47D it was 52.5 µM (inactive); in the assay on TK-10 it was 36.4 µM (inactive); in the assay on U-251, 27.7 µM (inactive). The GI50 in the assay with UO-31 was 27.3 µM (inactive).

Values taken from ChEMBL document CHEMBL1201862, “PubChem BioAssay data set” (2004).
